Data on 29 compounds can be found in patent US9096559B2, “4-carboxybenzylamino derivatives as histone deacetylase inhibitors” (Merck Sharp & Dohme Corp., priority 2007, dated 2015).

One assay concerns HCT-116. Kind of assay: HCT-116 anti-proliferation (GI50). The assay is classed as cell-based, human. Conditions: means of n ≧ 2 experiments. Here is the method:
(§1) The novel compounds of the present invention were tested for their ability to inhibit proliferation of the human cervical cancer (HeLa) and colon carcinoma (HCT116) cells.
In this assay, also referred to as the Vialight Assay, cellular ATP levels are measured as a means of quantifying cellular proliferation. This assay makes use of a bioluminescent method from Cambrex (ViaLight PLUS, cat. #LT07-121). In the presence of ATP, luciferase converts luciferin to oxyluciferin and light. The amount of light produced (emission at 565 nm) is measured and correlates with a relative amount of proliferation. Human cervical cancer (HeLa) or colon carcinoma (HCT116) cells were incubated with vehicle or increasing concentrations of compound for 48, 72 or 96 hours. Cell proliferation was quantified by adding the cell lysis reagent (provided in the Vialight assay kit) directly to culture wells, followed by addition of the ATP-monitoring reagent (containing luciferase/luciferin). The amount of light produced is then measured (emission at 565 nm). The quantity of light produced, as measured by […], is directly proportional to the number of living cells in culture. […]

In assay [1] the target is histone deacetylase, subtype 1 (HDAC1) (Homo sapiens (Human), UniProt Q13547). Nature of the assay: HDAC1-Flag in vitro deacetylation assay. The assay is classed as biochemical. Conditions: IP = inflection point; read-out: HDAC1 IP (inflection point). The gist of the method: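 Enzyme: Flag epitope-tagged human HDAC1 complex immunopurified from stably expressing mammalian cells. Substrate carries an acetylated lysine side chain; deacetylation yields a fluorophore proportional to activity, measured as fluorescence.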
Chain of histone deacetylase, subtype 1 (HDAC1) (Q13547 whole entry): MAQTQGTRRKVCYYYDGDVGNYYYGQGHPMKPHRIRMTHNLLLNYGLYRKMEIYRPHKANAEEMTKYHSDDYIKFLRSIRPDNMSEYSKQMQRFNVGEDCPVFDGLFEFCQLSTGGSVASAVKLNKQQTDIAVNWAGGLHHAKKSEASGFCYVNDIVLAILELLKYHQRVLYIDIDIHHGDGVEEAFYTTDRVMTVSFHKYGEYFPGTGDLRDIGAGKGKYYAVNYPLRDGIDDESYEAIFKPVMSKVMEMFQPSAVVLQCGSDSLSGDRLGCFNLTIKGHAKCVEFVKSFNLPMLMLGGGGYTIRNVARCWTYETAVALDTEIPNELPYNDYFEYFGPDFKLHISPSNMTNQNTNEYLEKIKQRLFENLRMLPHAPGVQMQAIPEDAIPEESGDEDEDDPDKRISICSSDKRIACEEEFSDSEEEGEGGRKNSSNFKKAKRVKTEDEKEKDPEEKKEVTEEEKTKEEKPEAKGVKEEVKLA

Assay [2] concerns human cervical cancer (HeLa) and colon carcinoma (HCT116) cells. Nature of the assay: ATP (Vialight) cell proliferation assay, 72 hr. To be noted: IP = inflection point, cell line not given, read-out: Prol-72 hr IP (inflection point). In kind it is cell-based. How it is done:
as §1
In this assay, also referred to as the Vialight Assay, cellular ATP levels are measured as a means of quantifying cellular proliferation. This assay makes use of a bioluminescent method from Cambrex (ViaLight PLUS, cat. #LT07-121). In the presence of ATP, luciferase converts luciferin to oxyluciferin and light. The amount of light produced (emission at 565 nm) is measured and correlates with a relative amount of proliferation. Human cervical cancer (HeLa) or colon carcinoma (HCT116) cells were incubated with vehicle or increasing concentrations of compound for 48, 72 or 96 hours. Cell proliferation was quantified by adding the cell lysis reagent (provided in the Vialight assay kit) directly to culture wells, followed by addition of the ATP-monitoring reagent (containing luciferase/luciferin). The amount of light produced is then measured (emission at 565 nm). The quantity of light produced, as measured by […], is directly proportional to the number of living cells in culture.

The structures appear in SMILES notation.

For the compound `Nc1ccc(-c2ccccc2)cc1NC(=O)c1ccc(CNC(=O)OCc2cccnc2)cc1` [Example 2a], in the assay on HCT-116, the 50% growth inhibitory concentration (GI50) stood at 225 nM.

Turning to `Nc1ccc(-c2cccs2)cc1NC(=O)c1ccc(CNC(=O)Cc2ccccc2)cc1` [Example 47, N-[2-amino-5-(2-thienyl)phenyl]-4-{[(phenylacetyl)amino]methyl}benzamide], the IC50 was 16 nM in assay [1] and 150 nM in assay [2].

With `CCCOC(=O)NCc1ccc(C(=O)Nc2cc(-c3cccs3)ccc2N)cc1` [Example 19, propyl {[4-({[2-amino-5-(2-thienyl)phenyl]amino}carbonyl)phenyl]methyl}carbamate], the IC50 in assay [1] was determined as 19 nM; in assay [2] it was 110 nM.

On to `Nc1ccc(-c2cccs2)cc1NC(=O)c1ccc(CNC(=O)C2CC2)cc1` [Example 39, N-[2-amino-5-(2-thienyl)phenyl]-4-{[(cyclopropylcarbonyl)amino]methyl}benzamide], for which the IC50 in assay [1] worked out at 15 nM; in assay [2], 96 nM.

Consider `Nc1ccc(-c2ccccc2)cc1NC(=O)c1ccc(CNC(=O)CCc2cccnc2)cc1` [Example 53, N-(4-aminobiphenyl-3-yl)-4-{[(3-pyridin-3-ylpropanoyl)amino]methyl}benzamide], for which the IC50 in assay [1] amounted to 16 nM; in assay [2], 340 nM.

`CNCCCN(C)Cc1ccc(C(=O)Nc2cc(-c3ccccc3)ccc2N)cc1` [Example 64, N-(4-amino-3-biphenylyl)-4-({methyl[3-(methylamino)propyl]amino}methyl)benzamide]: the IC50 in assay [1] is 18 nM; in assay [2] it was 540 nM.

On to `Nc1ccc(-c2ccccc2)cc1NC(=O)c1ccc(CNC(=O)Oc2ccccc2)cc1` [Example 14, phenyl[(4-{[(4-aminobiphenyl-3-yl)amino]carbonyl}phenyl)methyl]carbamate], for which the figures for the IC50 in assay [1] and in assay [2] were 320 nM and 1400 nM, respectively.

`CCCOC(=O)NCc1ccc(C(=O)Nc2cc(-c3ccccc3)ccc2N)cc1` [Example 12, propyl[(4-{[(4-aminobiphenyl-3-yl)amino]carbonyl}phenyl)methyl]carbamate]: the results for the IC50 in assay [1] and in assay [2] were 29 nM and 360 nM, respectively.

As for `Nc1ccc(-c2ccccc2)cc1NC(=O)c1ccc(CNC(=O)CCc2ccccc2)cc1` [Example 31, N-(4-aminobiphenyl-3-yl)-4-{[(3-phenylpropanoyl)amino]methyl}benzamide], the IC50 in assay [1] turned out to be 14 nM; in assay [2], 420 nM.

On to `CC(C)(C)C(=O)NCc1ccc(C(=O)Nc2cc(-c3cccs3)ccc2N)cc1` [Example 41, N-[2-amino-5-(2-thienyl)phenyl]-4-{[(2,2-dimethylpropanoyl)amino]methyl}benzamide], for which the IC50 in assay [1] was found to be 16 nM; in assay [2], 170 nM.

`Cc1csc(-c2ccc(N)c(NC(=O)c3ccc(CNc4ccncc4)cc3)c2)c1` [Example 69, N-[2-amino-5-(4-methyl-2-thienyl)phenyl]-4-[(4-pyridinylamino)methyl]benzamide]: the IC50 in assay [1] stood at 15 nM; in assay [2], 9700 nM.

On to `Nc1ccc(-c2ccccc2)cc1NC(=O)c1ccc(CNC(=O)OCc2ccccn2)cc1` [Example 59, pyridin-2-ylmethyl[(4-{[(4-aminobiphenyl-3-yl)amino]carbonyl}phenyl)methyl]carbamate], for which the IC50 came out at 20 nM in assay [1] and 440 nM in assay [2].

With `CC(C)COC(=O)NCc1ccc(C(=O)Nc2cc(-c3cccs3)ccc2N)cc1` [Example 20, 2-methylpropyl {[4-({[2-amino-5-(2-thienyl)phenyl]amino}carbonyl)phenyl]methyl}carbamate], the IC50 in assay [1] was 31 nM; in assay [2], 300 nM.

For the compound `CC(C)(C)C(=O)NCc1ccc(C(=O)Nc2cc(-c3ccccc3)ccc2N)cc1` [Example 28, N-(4-aminobiphenyl-3-yl)-4-{[(2,2-dimethylpropanoyl)amino]methyl}benzamide], the IC50 in assay [1] amounted to 25 nM; in assay [2], 260 nM.

As for `Nc1ccc(-c2ccsc2)cc1NC(=O)c1ccc(CNC(=O)OCc2cccnc2)cc1` [Example 4, pyridin-3-ylmethyl {[4-({[2-amino-5-(3-thienyl)phenyl]amino}carbonyl)phenyl]methyl}carbamate], the IC50 in assay [1] turned out to be 5.8 nM; in assay [2], 370 nM.

`Nc1ccc(-c2ccccc2)cc1NC(=O)c1ccc(CNC(=O)Cc2ccccn2)cc1` [Example 50, N-(4-aminobiphenyl-3-yl)-4-{[(pyridin-2-ylacetyl)amino]methyl}benzamide]: the results for the IC50 in assay [1] and in assay [2] were 19 nM and 300 nM, respectively.

For the compound `Nc1ccc(-c2ccccc2)cc1NC(=O)c1ccc(CN2C(=O)OC[C@H]2c2ccccc2)cc1` [Example 122, N-(4-aminobiphenyl-3-yl)-4-{[(4R)-2-oxo-4-phenyl-1,3-oxazolidin-3-yl]methyl}benzamide], the IC50 in assay [1] worked out at 58 nM; in assay [2] it was 1100 nM.

Take `CCC(=O)NCc1ccc(C(=O)Nc2cc(-c3ccccc3)ccc2N)cc1` [Example 24, N-(4-aminobiphenyl-3-yl)-4-[(propanoylamino)methyl]benzamide]: the figures for the IC50 in assay [1] and in assay [2] were 17 nM and 120 nM, respectively.

In the case of `O=C(NCc1ccc(C(=O)Nc2cc(-c3cccnc3)ccc2O)cc1)OCc1cccnc1` [Example 6, pyridin-3-ylmethyl[(4-{[(2-hydroxy-5-pyridin-3-ylphenyl)amino]carbonyl}phenyl)methyl]carbamate], the IC50 in assay [1] was 16 nM; in assay [2] it was 1000 nM.

Consider `Nc1ccc(-c2cccs2)cc1NC(=O)c1ccc(CN2C(=O)OC[C@H]2Cc2ccccc2)cc1` [Example 120, N-[2-amino-5-(2-thienyl)phenyl]-4-{[(4R)-2-oxo-4-(phenylmethyl)-1,3-oxazolidin-3-yl]methyl}benzamide], for which the IC50 in assay [1] was 84 nM; in assay [2], 920 nM.

Take `Nc1ccc(-c2ccccc2)cc1NC(=O)c1ccc(CNC(=O)C2CCCCC2)cc1` [Example 32, N-(4-aminobiphenyl-3-yl)-4-{[(cyclohexylcarbonyl)amino]methyl}benzamide]: the IC50 is 42 nM in assay [1] and 340 nM in assay [2].

In the case of `CCCC(=O)NCc1ccc(C(=O)Nc2cc(-c3cccs3)ccc2N)cc1` [Example 38, N-[2-amino-5-(2-thienyl)phenyl]-4-[(butanoylamino)methyl]benzamide], the results for the IC50 in assay [1] and in assay [2] were 12 nM and 150 nM, respectively.

As to `Nc1ccc(-c2cccs2)cc1NC(=O)c1ccc(CNC(=O)c2ccccc2)cc1` [Example 48, N-[2-amino-5-(2-thienyl)phenyl]-4-{[(phenylcarbonyl)amino]methyl}benzamide], the IC50 in assay [1] was 13 nM; in assay [2] it was 110 nM.

For `Nc1ccc(-c2ccccc2)cc1NC(=O)c1ccc(CNC(=O)c2ccccc2)cc1` [Example 35, N-(4-aminobiphenyl-3-yl)-4-{[(phenylcarbonyl)amino]methyl}benzamide], the IC50 in assay [1] was found to be 19 nM; in assay [2] it was 160 nM.

For the compound `COCC(C)NCc1ccc(C(=O)Nc2cc(-c3ccccc3)ccc2N)cc1` (stereo not drawn) [Example 66, N-(4-amino-3-biphenylyl)-4-{[(2-methoxy-1-methylethyl)amino]methyl}benzamide], the IC50 in assay [1] came to 23 nM; in assay [2] it was 1100 nM.

Regarding `CC(C)CC(=O)NCc1ccc(C(=O)Nc2cc(-c3cccs3)ccc2N)cc1` [Example 42, N-[2-amino-5-(2-thienyl)phenyl]-4-{[(3-methylbutanoyl)amino]methyl}benzamide], the IC50 was 15 nM in assay [1] and 120 nM in assay [2].

Regarding `Nc1ccc(-c2ccccc2)cc1NC(=O)c1ccc(CNC(=O)Cc2ccncc2)cc1` [Example 52, N-(4-aminobiphenyl-3-yl)-4-{[(pyridin-4-ylacetyl)amino]methyl}benzamide], the results for the IC50 in assay [1] and in assay [2] were 15 nM and 250 nM, respectively.

As to `Nc1ccc(-c2ccccc2)cc1NC(=O)c1ccc(CNC(=O)C2CCCC2)cc1` [Example 33, N-(4-aminobiphenyl-3-yl)-4-{[(cyclopentylcarbonyl)amino]methyl}benzamide], the IC50 in assay [1] turned out to be 21 nM; in assay [2], 200 nM.

In the case of `CC(C)OC(=O)NCc1ccc(C(=O)Nc2cc(-c3cccs3)ccc2N)cc1` [Example 18, 1-methylethyl {[4-({[2-amino-5-(2-thienyl)phenyl]amino}carbonyl)phenyl]methyl}carbamate], the results for the IC50 in assay [1] and in assay [2] were 19 nM and 120 nM, respectively.

The GI50 is the concentration giving 50% growth inhibition. Low values mean greater sensitivity of the cells, high ones lower sensitivity of the cells.
